Legend:
[1] = biological target: T1, Human Calpain 1/NS1 (Homo sapiens, UniProt P07384); test: Biochemical inhibition of calpain 1, continuous fluorescence (FRET substrate) assay; conditions: mean; read-out: Human Calpain 1/NS1 IC50 (nM)_MEAN
T1 sequence (P07384 1-714): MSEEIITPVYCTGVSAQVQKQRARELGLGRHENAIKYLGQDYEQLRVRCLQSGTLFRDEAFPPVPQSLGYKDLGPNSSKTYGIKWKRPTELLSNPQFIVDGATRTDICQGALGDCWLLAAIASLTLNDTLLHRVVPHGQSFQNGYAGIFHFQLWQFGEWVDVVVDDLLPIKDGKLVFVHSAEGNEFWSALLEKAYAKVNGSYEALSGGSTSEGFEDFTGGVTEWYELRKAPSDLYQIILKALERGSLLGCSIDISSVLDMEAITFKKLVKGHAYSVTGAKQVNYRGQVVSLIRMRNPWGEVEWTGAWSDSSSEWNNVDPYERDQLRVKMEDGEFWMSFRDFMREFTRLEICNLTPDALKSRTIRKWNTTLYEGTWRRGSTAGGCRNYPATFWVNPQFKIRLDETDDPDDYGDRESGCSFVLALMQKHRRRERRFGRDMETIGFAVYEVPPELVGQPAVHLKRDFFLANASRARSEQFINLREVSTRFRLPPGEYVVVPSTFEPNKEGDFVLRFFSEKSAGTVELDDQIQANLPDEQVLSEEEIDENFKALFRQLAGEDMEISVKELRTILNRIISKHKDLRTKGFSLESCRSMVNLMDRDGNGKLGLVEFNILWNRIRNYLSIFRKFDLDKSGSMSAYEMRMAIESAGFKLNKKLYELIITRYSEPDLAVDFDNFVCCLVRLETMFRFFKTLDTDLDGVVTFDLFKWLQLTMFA
T1 sequence (P04632 1-268 partner): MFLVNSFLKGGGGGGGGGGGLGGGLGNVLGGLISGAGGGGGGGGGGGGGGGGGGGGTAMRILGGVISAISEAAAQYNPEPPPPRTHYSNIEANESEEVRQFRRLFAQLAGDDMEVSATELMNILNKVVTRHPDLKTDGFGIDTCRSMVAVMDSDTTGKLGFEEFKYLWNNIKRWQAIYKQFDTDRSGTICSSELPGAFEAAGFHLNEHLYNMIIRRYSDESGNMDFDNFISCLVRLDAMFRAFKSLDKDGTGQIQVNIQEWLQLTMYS
Method: (§1) Calpain 1, 2, and 9 activity and inhibition thereof are assessed by means of a continuous fluorescence assay. The SensoLyte 520 Calpain substrate (Anaspec Inc) is optimized for detecting calpain activity. This substrate contains a novel internally quenched 5-FAM/QXL™ 520 FRET pair. Calpains 1, 2, and 9 cleave the FRET substrate into two separate fragments resulting in an increase of 5-FAM fluorescence that is proportional to calpain activity.
(§2) Assays are typically setup in black 384-well plates using automated liquid handling as follows. Calpain assay base buffer typically contains 50 mM Tris, pH 7.5, 100 mM NaCl and 1 mM DTT. Inhibitors are serially diluted in DMSO and used to setup 2× mixtures with calpains in the aforementioned buffer. After incubation at ambient temperature (25 C), the reaction is initiated by adding a 2× mix of the fluorescent peptide substrate and CaCl2 (required for in-situ calpain activation) in the same buffer. Reaction progress curve data are typically collected for 10 min using excitation/emission wavelengths of 490 nm/520 nm on SpectraMax i3x or the FLIPR-Tetra plate readers (Molecular Devices Inc). Reaction rates were calculated from progress curve slopes typically over 1-5 min. Dose response curves (rate vs. log inhibitor concentration) were typically fit to a 4-parameter logistic function to extract IC50 values.

[2] = biological target: T2, Human Calpain 2/NS1 (Homo sapiens, UniProt P17655); test: Biochemical inhibition of calpain 2, continuous fluorescence (FRET substrate) assay; conditions: mean; read-out: Human Calpain 2/NS1 1C50 [sic] (nM)_MEAN
T2 sequence (P17655 1-700): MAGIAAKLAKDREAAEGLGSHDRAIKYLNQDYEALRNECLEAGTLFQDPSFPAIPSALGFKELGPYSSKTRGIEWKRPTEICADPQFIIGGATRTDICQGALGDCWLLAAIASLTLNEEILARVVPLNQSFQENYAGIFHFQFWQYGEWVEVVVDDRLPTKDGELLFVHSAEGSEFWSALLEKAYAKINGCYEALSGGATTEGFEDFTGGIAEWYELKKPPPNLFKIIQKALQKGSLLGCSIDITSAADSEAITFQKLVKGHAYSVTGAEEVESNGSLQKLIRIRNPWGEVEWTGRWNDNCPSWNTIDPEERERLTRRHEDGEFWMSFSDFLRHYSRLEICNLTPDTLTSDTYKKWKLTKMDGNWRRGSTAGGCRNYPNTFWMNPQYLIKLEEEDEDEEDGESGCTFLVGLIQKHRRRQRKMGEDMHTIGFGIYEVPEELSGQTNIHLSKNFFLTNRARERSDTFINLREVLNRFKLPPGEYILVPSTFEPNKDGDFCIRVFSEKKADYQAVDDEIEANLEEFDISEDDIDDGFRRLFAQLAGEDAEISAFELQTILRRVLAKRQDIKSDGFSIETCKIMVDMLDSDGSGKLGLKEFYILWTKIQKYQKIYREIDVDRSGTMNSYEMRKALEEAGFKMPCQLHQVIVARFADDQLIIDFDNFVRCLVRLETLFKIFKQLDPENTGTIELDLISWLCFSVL
T2 sequence (P04632 1-268 partner): T1 sequence (P04632 1-268 partner)
Method: as §1, §2

[3] = biological target: T3, Human Calpain 9/NS1 (Homo sapiens, UniProt O14815); test: Biochemical inhibition of calpain 9, continuous fluorescence (FRET substrate) assay; conditions: mean; read-out: Human Calpain 9/NS1 IC50 (nM)_MEAN
T3 sequence (O14815 1-690): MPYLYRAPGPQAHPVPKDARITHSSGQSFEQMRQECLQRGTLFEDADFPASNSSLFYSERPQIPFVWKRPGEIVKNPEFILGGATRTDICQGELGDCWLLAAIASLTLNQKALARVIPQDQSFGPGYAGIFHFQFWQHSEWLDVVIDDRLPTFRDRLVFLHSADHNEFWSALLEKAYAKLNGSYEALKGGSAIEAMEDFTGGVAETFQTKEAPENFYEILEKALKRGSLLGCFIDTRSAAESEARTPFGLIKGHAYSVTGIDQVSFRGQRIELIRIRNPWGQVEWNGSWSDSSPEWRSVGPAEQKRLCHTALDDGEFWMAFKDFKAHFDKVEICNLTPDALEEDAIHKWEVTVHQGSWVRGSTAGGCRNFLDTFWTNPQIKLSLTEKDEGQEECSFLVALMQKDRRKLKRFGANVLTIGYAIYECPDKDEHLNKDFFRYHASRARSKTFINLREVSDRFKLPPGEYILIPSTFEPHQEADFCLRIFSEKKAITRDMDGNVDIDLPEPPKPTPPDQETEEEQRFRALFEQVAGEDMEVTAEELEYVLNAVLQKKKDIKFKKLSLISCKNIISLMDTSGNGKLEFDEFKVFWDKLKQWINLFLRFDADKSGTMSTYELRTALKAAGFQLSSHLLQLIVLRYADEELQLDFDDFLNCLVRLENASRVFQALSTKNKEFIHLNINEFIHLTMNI
T3 sequence (P04632 1-268 partner): T1 sequence (P04632 1-268 partner)
Method: as §1, §2

[4] = system: calpain activity in SH-SY5Y cells (Spectrin); test: SH-SY5Y Spectrin cellular calpain inhibition; assay type: cell-based
[5] = system: calpain activity in SH-SY5Y cells; test: SH-SY5Y cellular calpain activity, Suc-LLVY-AMC fluorescence assay; assay type: cell-based; conditions: Suc-LLVY-AMC substrate
Method: Calpain activity in SH-SY5Y cells and inhibition thereof were assessed by means of a homogeneous, fluorescence assay that uses the cell-permeable and pro-fluorescent calpain substrate Suc-LLVY-AMC (Sigma-Aldrich Inc). Upon intracellular calpain cleavage of Suc-LLVY-AMC, fluorescent amino-methyl-coumarin (AMC) is released into the media resulting in a continuous increase in fluorescence signal that is proportional to intra-cellular calpain activity.
Assays were typically setup by seeding SH-SY5Y cells in black 384-well plates at 40 k/per well in RPMI-1640 containing 1% serum followed by 37 C overnight incubation. Next morning, cells were pre-incubated for 30 min with serially diluted compounds followed by addition of 100 uM of Suc-LLVY-AMC substrate. The continuous increase in AMC fluorescence is monitored using a FLIPR, Tetra plate reader (Molecular Devices Inc) and slopes measured to report calpain activity. Dose response curves (slopes vs. log inhibitor concentration) were typically fit to a 4-parameter logistic function to extract IC50 values.

| IC50 [1] | IC50 [2] | IC50 [3] | IC50 [4] | IC50 [5] | SMILES |
| --- | --- | --- | --- | --- | --- |
| < 3000 nM | < 3000 nM | < 3000 nM | < 10 µM | < 10 µM | NC(=O)C(=O)[C@H](Cc1ccccc1)NC(=O)c1cc(F)c(Cl)cc1Cl [Compound 33, (S)—N-(4-AMINO-3,4-DIOXO-1-PHENYLBUTAN-2-YL)-2,4-DICHLORO-5-FLUOROBENZAMIDE] |
| < 3000 nM | < 3000 nM | < 3000 nM | 10 to 25 µM | < 10 µM | NC(=O)C(=O)[C@H](Cc1ccccc1)NC(=O)c1cc(Cl)ccc1Cl [Compound 22, (S)—N-(4-AMINO-3,4-DIOXO-1-PHENYLBUTAN-2-YL)-2,5-DICHLOROBENZAMIDE] |
| 3000 to 10000 nM | < 3000 nM | < 3000 nM | > 25 µM |  | NC(=O)C(=O)C(Cc1ccccc1)NC(=O)c1ccc2c(c1)OCO2 (stereo not shown) [Compound 24, N-(4-AMINO-3,4-DIOXO-1-PHENYLBUTAN-2-YL)BENZO[d][1,3]DIOXOLE-5-CARBOXAMIDE] |
| < 3000 nM | < 3000 nM | < 3000 nM | 10 to 25 µM | 10 to 25 µM | NC(=O)C(=O)[C@H](Cc1ccccc1)NC(=O)c1c(F)cccc1F [Compound 15, (S)—N-(4-AMINO-3,4-DIOXO-1-PHENYLBUTAN-2-YL)-2,6-DIFLUOROBENZAMIDE] |
| > 10000 nM | 3000 to 10000 nM | 3000 to 10000 nM | > 25 µM | < 10 µM | NC(=O)C(=O)[C@H](Cc1ccccc1)NC(=O)c1ccc(F)cc1 [Compound 28, (S)—N-(4-AMINO-3,4-DIOXO-1-PHENYLBUTAN-2-YL)-4-FLUOROBENZAMIDE] |

Further lines, the molecule ahead of its results:

| SMILES | IC50 [1] | IC50 [2] | IC50 [3] | IC50 [4] | IC50 [5] |
| --- | --- | --- | --- | --- | --- |
| COc1ccc(F)c(C(=O)NC(C=O)Cc2ccccc2)c1Cl (stereo not shown) [Compound 43, 2-CHLORO-6-FLUORO-3-METHOXY-N-(1-OXO-3-PHENYLPROPAN-2-YL)BENZAMIDE] | < 3000 nM | < 3000 nM | < 3000 nM | 10 to 25 µM | < 10 µM |
| O=CC(Cc1ccccc1)NC(=O)c1c(F)cccc1C(F)(F)F (stereo not shown) [Compound 39, 2-FLUORO-N-(1-OXO-3-PHENYLPROPAN-2-YL)-6-(TRIFLUOROMETHYL)BENZAMIDE] | < 3000 nM | < 3000 nM | < 3000 nM | > 25 µM | 10 to 25 µM |
| NC(=O)C(=O)[C@H](Cc1ccccc1)NC(=O)c1c(F)cc(F)cc1F [Compound 3, (S)—N-(4-AMINO-3,4-DIOXO-1-PHENYLBUTAN-2-YL)-2,4,6-TRIFLUOROBENZAMIDE] | < 3000 nM | < 3000 nM | < 3000 nM | > 25 µM | 10 to 25 µM |
| O=CC(Cc1ccccc1)NC(=O)c1c(F)cccc1F (stereo not shown) [Compound 40, 2,6-DIFLUDRO-N-(1-OXO-3-PHENYLPROPAN-2-YL)BENZAMIDE] | < 3000 nM | < 3000 nM | < 3000 nM | 10 to 25 µM | > 25 µM |
| Cn1c2ccccc2c2c(C(=O)NC(C=O)Cc3ccccc3)cccc21 (stereo not shown) [Compound 47, 9-METHYL-N-(1-OXO-3-PHENYLPROPAN-2-YL)-9H-CARBAZOLE-4-CARBOXAMIDE] | < 3000 nM | < 3000 nM | < 3000 nM | > 25 µM | < 10 µM |
| Cn1c2ccccc2c2c(C(=O)NC(Cc3ccccc3)C(=O)C(N)=O)cccc21 (stereo not shown) [Compound 11, N-(4-AMINO-3,4-DIOXO-1-PHENYLBUTAN-2-YL)-9-METHYL-9H-CARBAZOLE-4-CARBOXAMIDE] | < 3000 nM | < 3000 nM | < 3000 nM | 10 to 25 µM | < 10 µM |
| COc1ccc(Cl)cc1C(=O)NC(C=O)Cc1ccccc1 (stereo not shown) [Compound 37, 5-CHLORO-2-METHOXY-N-(1-OXO-3-PHENYLPROPAN-2-YL)BENZAMIDE] | 3000 to 10000 nM | < 3000 nM | > 10000 nM | > 25 µM | > 25 µM |
| COc1ccc(F)c(C(=O)N[C@@H](Cc2ccccc2)C(=O)C(N)=O)c1Cl [Compound 29, (S)—N-(4-AMINO-3,4-DIOXO-1-PHENYLBUTAN-2-YL)-2-CHLORO-6-FLUORO-3-METHOXYBENZAMIDE] | < 3000 nM | < 3000 nM | < 3000 nM | 10 to 25 µM | < 10 µM |
| O=CC(Cc1ccccc1)NC(=O)c1c(C(F)(F)F)ccc(Cl)c1F (stereo not shown) [Compound 38, 3-CHLORO-2-FLUORO-N-(1-OXO-3-PHENYLPROPAN-2-YL)-6-(TRIFLUOROMETHYL)BENZAMIDE] | < 3000 nM | < 3000 nM | < 3000 nM | < 10 µM | 10 to 25 µM |
| O=CC(Cc1ccccc1)NC(=O)c1c(Cl)cccc1Br (stereo not shown) [Compound 41, 2-BROMO-6-CHLORO-N-(1-OXO-3-PHENYLPROPAN-2-YL)BENZAMIDE] | 3000 to 10000 nM | < 3000 nM | < 3000 nM | 10 to 25 µM |  |

Source: patent publication US20210347727A1 (BLADE THERAPEUTICS, INC., priority 2017, published 2021)
